From patent US7122520B2, “Methods of modulating appetite using agouti-related transcript polypeptides” (Amgen Inc., priority 1996, dated 2006)
Ends that are not written are not given here.

Assays:
food intake of rats = assay: Feeding behavior of rats treated with ART (intracerebroventricular injection); assay type: in vivo, Long-Evans male rats
Method: Long-Evans male rats weighing 300–500 grams were chronically implanted in the brain with a 22 gauge cannula aimed at the lateral ventricle. The steriotaxic coordinates for the canulas were approximately: 0.8 mm anterior/posterior; 1.4 mm medial/lateral; and 3.5 mm dorsal/ventral. A 3.5 mm, 28 gauge stylet remained inside the implanted cannula until the animal was ready for an injection. ART peptide or control solutions were administered with a 28 gauge injector that extended about 1 mm beyond the tip of the cannula.
ART peptide was dissolved in PBS (pH about 7.0) and injected into the lateral ventricle at doses ranging from about 0.075 nmol to about 7.5 nmol in a volume of about 2 μl. Controls were PBS and an unfolded version of ART at about 7.5 nmol. Feeding measurements were taken from pre-weighed dishes containing a mixture of ground rodent chow, sugar, and condensed milk. (45%:28%:27%). Rats were offered this mixture along with their regular chow about 24 hours prior to injection. About one and one half hours prior to infusion, the regular chow was removed, but the rats were allowed to continue feeding on the sweetened mixture. Injections were done at 8:30 am or at 8:30 pm. Food intake was assessed by weighing the dishes over time at 90 minutes, 4 hours, 8 hours, 12 hours, and 24 hours after injection. 10–12 rats were used per group.

feeding response of rats = conditions: injection into the brain of rats; cited from earlier work
MC1 receptor = target: T1, MC1 receptor (Mus musculus, UniProt Q01727); conditions: B16F10 mouse melanoma cell cultures; cited from earlier work
T1 construct: at the MC1 receptor in B16F10 mouse melanoma cell cultures; endogenous in cells; host or cells: B16F10 mouse melanoma cells
T1 sequence (Q01727 whole entry): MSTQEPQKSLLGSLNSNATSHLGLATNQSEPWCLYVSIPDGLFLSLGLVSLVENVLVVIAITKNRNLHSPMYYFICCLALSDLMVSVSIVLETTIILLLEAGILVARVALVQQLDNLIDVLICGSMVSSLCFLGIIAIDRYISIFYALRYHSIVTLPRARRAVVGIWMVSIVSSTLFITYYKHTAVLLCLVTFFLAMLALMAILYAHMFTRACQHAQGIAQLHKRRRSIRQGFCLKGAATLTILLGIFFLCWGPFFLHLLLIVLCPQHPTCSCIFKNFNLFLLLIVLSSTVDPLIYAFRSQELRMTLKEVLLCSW

Molecule: folded ART: synthetic peptide containing amino acids 79–132 of ART (SEQ ID NO:8), refolded in Tris-HCl/urea (REPRSSRRCVRLHESCLGQQVPCCDPCATCYCRFFNAFCYCRKLGTAMNPCSRT; cysteine pairing not given here; also: refolded)
- food intake (cumulative amount of food consumed) (food intake of rats; injection into lateral ventricle, 0.075-7.5 nmol in about 2 μl, measured 90 minutes to 24 hours after injection, vs PBS and unfolded ART controls): increased their food intake as compared to controls
- relation between amount of ART injected and amount of food eaten (food intake of rats; lateral ventricle, doses about 0.075 nmol to about 7.5 nmol): correlation between the amount of ART injected and the amount of food eaten

Molecule: melanin concentrating hormone (DFDMLRCMLGRVYRPCWQV; ends and bridges not checked; cysteine pairing not given here; UniProt P20382 147-165, looked up) [MCH]
- feeding response (feeding response of rats): stimulates a feeding response

B1: mouse agouti protein: 131 amino acid secreted protein encoded by the mouse agouti gene (protein, UniProt Q03288 23-131, looked up)
Agouti-signaling protein: HLALEETLGDDRSLRSNSSMNSLDFSSVSIVALNKKSKKISRKEAEKRKRSSKKKASMKKVARPPPPSPCVATRDSCKPPAPACCDPCASCQCRFFGSACTCRVLNPNC
- antagonism of a-MSH at the MC1 receptor (MC1 receptor): potent antagonist
